The species entered for one data set is Homo sapiens. Kind of data set: Selectivity ratio of Ki for human CB1 receptor to Ki for human CB2 receptor.
In data set [1] the target is T1, Cannabinoid receptor 2 (Homo sapiens, UniProt P34972). As to the kind of experiment: Agonist activity at human CB2 receptor assessed as inhibition of forskolin-induced cAMP production preincubated for 15 mins followed by forskolin challenge measured after 30 mins by HTRF assay. Format: functional. For orientation: Cyclic AMP is a second messenger, typically raised through Gs and lowered through Gi signalling.
T1 sequence (P34972 whole entry): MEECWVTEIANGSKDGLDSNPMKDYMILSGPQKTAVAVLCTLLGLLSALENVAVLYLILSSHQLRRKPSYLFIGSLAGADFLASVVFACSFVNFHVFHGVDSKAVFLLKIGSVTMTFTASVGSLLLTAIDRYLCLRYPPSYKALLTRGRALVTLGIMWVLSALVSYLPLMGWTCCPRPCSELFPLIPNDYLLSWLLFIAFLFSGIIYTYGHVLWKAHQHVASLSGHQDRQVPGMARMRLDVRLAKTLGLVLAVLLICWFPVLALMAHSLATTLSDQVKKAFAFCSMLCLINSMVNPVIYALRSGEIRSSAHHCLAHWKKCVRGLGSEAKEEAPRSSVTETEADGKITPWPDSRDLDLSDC

Data set [2] deals with T2, Cannabinoid receptor 1 (Homo sapiens, UniProt P21554). Kind of data set: Agonist activity at human CB1 receptor expressed in CHO-K1 cells assessed as inhibition of forskolin-induced cAMP accumulation by TR-FRET assay. Format: functional, cell-based.
T2 sequence (P21554 whole entry): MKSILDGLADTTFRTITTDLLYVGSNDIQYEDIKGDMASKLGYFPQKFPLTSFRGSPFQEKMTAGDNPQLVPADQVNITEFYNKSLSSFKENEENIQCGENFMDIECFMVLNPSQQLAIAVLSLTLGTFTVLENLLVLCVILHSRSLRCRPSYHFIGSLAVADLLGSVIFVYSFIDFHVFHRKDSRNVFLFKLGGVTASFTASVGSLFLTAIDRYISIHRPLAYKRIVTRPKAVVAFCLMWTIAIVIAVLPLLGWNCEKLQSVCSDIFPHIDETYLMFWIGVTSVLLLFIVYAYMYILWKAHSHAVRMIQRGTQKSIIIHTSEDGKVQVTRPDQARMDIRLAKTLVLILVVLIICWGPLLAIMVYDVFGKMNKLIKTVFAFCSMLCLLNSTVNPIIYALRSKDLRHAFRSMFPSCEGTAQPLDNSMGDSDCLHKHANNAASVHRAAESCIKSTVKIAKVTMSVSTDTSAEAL
Data set [3] has as its target T2, Cannabinoid receptor 1. Kind of data set: Binding affinity to human CB1 receptor.
Data set [4] has as its target T1, Cannabinoid receptor 2. As to the kind of experiment: Binding affinity to human CB2 receptor.
Data set [5] in a line: Selectivity ratio of Ki for rat CB1 receptor to Ki for human CB2 receptor.
For data set [6], the target named is T1, Cannabinoid receptor 2. Kind of data set: Agonist activity at human CB2 receptor expressed in CHO-K1 cells assessed as inhibition of forskolin-induced cAMP accumulation by TR-FRET assay. Format: functional, cell-based.
For data set [7], the target named is T3, Cannabinoid receptor 1 (Rattus norvegicus, UniProt P20272). As to the kind of experiment: Binding affinity to rat CB1 receptor.
T3 sequence (P20272 whole entry): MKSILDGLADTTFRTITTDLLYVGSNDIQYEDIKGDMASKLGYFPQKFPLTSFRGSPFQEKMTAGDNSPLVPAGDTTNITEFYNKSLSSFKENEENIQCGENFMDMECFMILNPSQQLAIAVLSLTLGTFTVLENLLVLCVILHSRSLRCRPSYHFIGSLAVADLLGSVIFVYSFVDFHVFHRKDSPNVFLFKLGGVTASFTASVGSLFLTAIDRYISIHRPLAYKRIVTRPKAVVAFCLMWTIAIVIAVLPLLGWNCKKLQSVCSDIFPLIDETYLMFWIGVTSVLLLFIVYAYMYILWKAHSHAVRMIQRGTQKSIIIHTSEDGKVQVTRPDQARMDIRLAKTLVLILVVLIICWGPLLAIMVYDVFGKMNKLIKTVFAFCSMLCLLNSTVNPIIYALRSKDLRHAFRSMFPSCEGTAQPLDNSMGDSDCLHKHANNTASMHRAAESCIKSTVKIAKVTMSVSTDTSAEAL
The species entered for another data set is Rattus norvegicus. As to the kind of experiment: Selectivity ratio of Ki for CB2 receptor of rat spleen membranes to Ki for CB1 receptor of rat cerebellar membranes. Format: tissue-based.
The target of data set [8] is T4, Cannabinoid receptor 2 (Rattus norvegicus, UniProt Q9QZN9).
T4 sequence (Q9QZN9 whole entry): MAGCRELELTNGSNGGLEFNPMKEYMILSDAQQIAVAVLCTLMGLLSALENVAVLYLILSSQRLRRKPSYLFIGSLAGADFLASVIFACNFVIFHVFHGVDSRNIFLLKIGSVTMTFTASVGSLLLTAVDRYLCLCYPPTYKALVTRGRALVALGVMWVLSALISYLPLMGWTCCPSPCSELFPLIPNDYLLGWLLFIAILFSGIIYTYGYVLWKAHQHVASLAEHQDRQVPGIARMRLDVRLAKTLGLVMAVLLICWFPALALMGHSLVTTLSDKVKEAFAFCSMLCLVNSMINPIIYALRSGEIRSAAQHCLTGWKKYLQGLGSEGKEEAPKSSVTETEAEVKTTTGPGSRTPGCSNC
As to the kind of experiment: Displacement of [3H]-CP55940 from CB2 receptor of rat spleen membranes by liquid scintillation counting in presence of serine protease inhibitor PMSF. Format: tissue-based, Membrane. For orientation: In a radioligand displacement assay an active substance lowers the binding of a labelled ligand.

In data set [9] the target is T3, Cannabinoid receptor 1. Kind of data set: Displacement of [3H]-CP55940 from CB1 receptor of rat cerebellar membranes by liquid scintillation counting in presence of serine protease inhibitor PMSF. Set-up: species or system Cerebellum, Membrane.
The target in data set [10] is T2, Cannabinoid receptor 1. Kind of data set: Binding affinity to CB1 receptor (unknown origin).
For data set [11], the target named is T2, Cannabinoid receptor 1. Kind of data set: Displacement of [3H]-CP55940 from human CB1 receptor expressed in CHO-K1 cells by liquid scintillation counting. As to conditions: read-out: EC50 (the source's name). Format: cell-based.
Data set [12] deals with T1, Cannabinoid receptor 2. Kind of data set: Displacement of [3H]-CP55940 from human CB2 receptor expressed in CHO-K1 cells by liquid scintillation counting. Format: cell-based.
For data set [13], the target named is T1, Cannabinoid receptor 2. Kind of data set: Binding affinity to CB2 receptor (unknown origin).
Data set [14] addresses T1, Cannabinoid receptor 2. As to the kind of experiment: Agonist activity at human CB2 receptor expressed in Sf9 membranes assessed as effect on [35S]-GTPgammaS binding after 30 mins by scintillation counting. Format: functional, cell membranes. Background: GTPγS is a poorly hydrolysed GTP analogue; its binding reports G protein activation.
In data set [15] the target is T2, Cannabinoid receptor 1. Kind of data set: Agonist activity at human CB1 receptor expressed in human SK-N-MC cells by CRE-beta galactosidase reporter gene assay. Format: functional, cell-based.
Data set [16] concerns the target T1, Cannabinoid receptor 2. As to the kind of experiment: Agonist activity at human CB2 receptor expressed in human SK-N-MC cells by CRE-beta galactosidase reporter gene assay. Format: functional, cell-based.
The target in data set [17] is T2, Cannabinoid receptor 1. Kind of data set: Agonist activity at human CB1 receptor assessed as inhibition of forskolin-induced cAMP production preincubated for 15 mins followed by forskolin challenge measured after 30 mins by HTRF assay. Format: functional.
The target in data set [18] is T2, Cannabinoid receptor 1. As to the kind of experiment: Agonist activity at CB1 receptor (unknown origin).
Data set [19] has as its target T2, Cannabinoid receptor 1. As to the kind of experiment: Displacement of [3H]-CP55940 from human CB1 receptor expressed in HEK293 cells after 90 mins by liquid scintillation counting. Format: cell-based.
In data set [20] the target is T1, Cannabinoid receptor 2. As to the kind of experiment: Displacement of [3H]-CP55940 from human CB2 receptor expressed in HEK293 cells after 90 mins by liquid scintillation counting. Format: cell-based.
A short description of data set [21]: Cmax in Sprague-Dawley rat at 10 mg/kg, po by UV-HPLC analysis. Format: ADME, organism-based. Set-up: dose 10 mg/kg, route oral. As to conditions: in vivo.
Data set [22] can be described thus: Half life in Sprague-Dawley rat at 10 mg/kg, po by UV-HPLC analysis. As to conditions: in vivo. Details: dose 10 mg/kg, route oral. Format: ADME, organism-based.
Data set [23] in a line: AUC (0 to infinity) in Sprague-Dawley rat at 10 mg/kg, po by UV-HPLC analysis. Format: ADME, organism-based. Details: time infinity, dose 10 mg/kg, route oral. Particulars: plasma.

On to `O=C(Nc1sc2c(c1C(=O)N1CCC1)CC1CCC2O1)c1c(F)cccc1C(F)(F)F` (configuration not stated), for which the Ratio Ki in the data set filed under Homo sapiens was 10.
As usually defined, the Ki is the equilibrium dissociation constant of an inhibitor or competing ligand from its target. As for `Clc1ccc(-c2nc(N3CCCCC3)c3ccccc3n2)c(Cl)c1`, the Ki at Cannabinoid receptor 2 [1] was < 1000 nM.
Usually EC50 stands for the concentration that produces a half-maximal response. In the case of `O=S(=O)(c1ccc2c(c1)C1C3CCC(C3)C1C(c1ccccc1)N2)N1CCOCC1` (configuration not stated), the EC50 on Cannabinoid receptor 1 [2] is > 10000 nM.
Turning to `CCCCCCC(C)(C)c1cc(O)c([C@H]2CC(=O)[C@H]3C[C@@H]2C3(C)C)c(OC(=O)/C=C/C(=O)O)c1` [PRS-211375], the inhibition constant (Ki) at Cannabinoid receptor 1 [3] was determined as 334 nM; on Cannabinoid receptor 2 [4] it was 9 nM. The Ratio Ki in the data set filed under Homo sapiens turned out to be 37.
With `CCCC(C)(C)c1ccc2c(c1)OC(C)(C)[C@@H]1CC=C(C)C[C@@H]21`, the Ratio Ki in [5] came out at 200.
Consider `O=C(NC1CCCC1)c1ccc2c(c1)N(S(=O)(=O)c1ccc(F)cc1)CCS2`, for which the EC50 at Cannabinoid receptor 1 [2] turned out to be 10 nM; at Cannabinoid receptor 2 [6], 1 nM.
Turning to `CCCCCc1ccc2c(c1)OC(C)(C)[C@@H]1CC=C(C)C[C@@H]21`, the Ki on Cannabinoid receptor 1 [7] is > 10000 nM; at Cannabinoid receptor 2 [4] it was 32 nM. Also, the Ratio Ki in data set [5] is > 312.
For `CCCCC/C=C\C/C=C\C/C=C\C/C=C\CCCC(=O)NCCCl`, the Ratio Ki in the data set listed under Rattus norvegicus was > 1430. Also, the inhibition constant Ki at Cannabinoid receptor 2 [8] was > 2000 nM; on Cannabinoid receptor 1 [9], 1.4 nM.
With `COc1cccc2c(C(=O)c3ccc(Br)c4ccccc34)c(C)n(CCN3CCOCC3)c12`, at Cannabinoid receptor 1 [10], the inhibition constant Ki is > 1000 nM.
In the case of `CCCCC/C=C\C/C=C\C/C=C\C/C=C\CCCCOC(CO)CO`, the affinity at Cannabinoid receptor 2 [4], expressed as Ki, was 3000 nM.
For the molecule `CC(C)(C)c1cn(C[C@H]2CCCO2)/c(=N/C(=O)c2cc(C(F)(F)F)ccc2OCc2ccccn2)s1`, at Cannabinoid receptor 1 [11], the IC50 is > 27000 nM. On Cannabinoid receptor 2 [12], this molecule came in with an EC50 of 1 nM.
Take `COc1cccc2c(C(=O)N[C@@H]3C(C)(C)[C@@H]4CC[C@@]3(C)C4)cn(CCN3CCOCC3)c12`: the Ki was 245 nM on Cannabinoid receptor 1 [10] and 11 nM at Cannabinoid receptor 2 [13].
Consider `Cc1c(C(=O)c2cccc(Cl)c2Cl)c2ccsc2n1CCN1CCOCC1`, for which, on Cannabinoid receptor 2 [14], the EC50 is < 100 nM.
For `FC1(F)CCN(Cc2nc(-c3cccc(C(F)(F)F)c3)n3ccccc23)CC1`, the EC50 at Cannabinoid receptor 2 [1] was determined as 17 nM.
Consider `C[C@H](NS(=O)(=O)/C=C/c1n[nH]c2c1CCCC[C@@H]2Cc1cccc(F)c1)c1ccccc1`, for which the Ratio Ki in the data set listed under Homo sapiens was > 550. The values for the EC50 on Cannabinoid receptor 1 [15] and on Cannabinoid receptor 2 [16] were > 5000 nM and 9 nM, respectively.
As for `Cc1ccc2c(c1)Cc1c(C(=O)NN3CCCCC3)nn(-c3ccc(Cl)cc3Cl)c1-2`, on Cannabinoid receptor 2 [13], the Ki is 0.037 nM.
As for `COc1ccc(-c2nnc(NC(=O)C(C)(C)S(=O)(=O)C3CCOCC3)[nH]2)cc1`, on Cannabinoid receptor 1 [17], the EC50 is > 20000 nM.
`CCc1c(C)cc(C(=O)NC2(C(=O)O)CCCCC2)c(=O)n1Cc1ccc(F)cc1` [S-777469] returned a Ki at Cannabinoid receptor 1 [18] of 4600 nM.
For `CC(=O)N1CCC(Cn2c(C(C)(C)C)nc3cc(S(=O)(=O)C4CCCC4)ccc32)CC1`, the EC50 on Cannabinoid receptor 2 [1] came to 3 nM.
Take `CCNC(=O)c1c(NC(=O)C23CC4CC(CC(C4)C2)C3)sc2c1CCOC2`: the values for the EC50 on Cannabinoid receptor 1 [19] and on Cannabinoid receptor 2 [20] were > 1.5 nM and 21 nM, respectively.
With `Cc1sc(NC(=O)N2CCCN(C(=O)C3CCC(F)(F)CC3)CC2)nc1C(C)(C)C`, the EC50 on Cannabinoid receptor 2 [1] amounted to 0.7 nM.
The Cmax is the highest concentration seen after dosing. Usually half-life stands for how long it takes for the measured level to halve. The low end stands for fast loss, the high end for slow loss. The term AUC(0-inf) denotes total exposure, with the tail of the curve extrapolated. The low end stands for low exposure, the high end for high exposure. For `CC(C)(C)NC(=O)c1nn(-c2ccc(Cl)cc2)c2c1C1CCC2C1` (configuration not stated), the Cmax in data set [21] is 131 ng/mL. The molecule also showed a half-life in data set [22] of 7.3 h. This molecule yielded an AUC(0-inf) in data set [23] of 1550 ng·h/mL.
With `CS(=O)(=O)N1CCc2c(cc(-c3cccc(Cl)c3)c(=O)n2CC2CCC2)C1`, the EC50 on Cannabinoid receptor 1 [2] was > 10000 nM; at Cannabinoid receptor 2 [6], < 100 nM.
On to `CCCCC/C=C\C/C=C\C/C=C\C/C=C\CCCC(=O)NC1CC1`, for which the Ratio Ki in the data set filed under Rattus norvegicus came out at 325. Besides, the inhibition constant Ki at Cannabinoid receptor 2 [8] was determined as 715 nM; at Cannabinoid receptor 1 [9], 2.2 nM.
On to `CCCCCCC(C)(C)c1cc(OC)c2c(c1)OC(C)(C)[C@@H]1CC=C(C)C[C@@H]21`, for which the Ratio Ki in the data set listed under Homo sapiens was > 790.
